Experimental data: article PMC10869644 (Molecular plant, 2024)

Target: T1, ABA2 (ABA DEFICIENT 2) (Arabidopsis thaliana, UniProt Q9C826)
T1 sequence (Q9C826 1-285 limits assumed): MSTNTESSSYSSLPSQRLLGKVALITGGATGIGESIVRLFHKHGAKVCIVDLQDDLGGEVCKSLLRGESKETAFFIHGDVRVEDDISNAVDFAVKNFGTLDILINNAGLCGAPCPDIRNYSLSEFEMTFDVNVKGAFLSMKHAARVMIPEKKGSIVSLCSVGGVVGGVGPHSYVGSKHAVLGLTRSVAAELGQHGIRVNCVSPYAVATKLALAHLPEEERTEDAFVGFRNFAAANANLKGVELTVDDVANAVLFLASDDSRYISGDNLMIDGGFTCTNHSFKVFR
Assay: NADH formation at A340, dehydrogenase activity
Type: biochemical
Conditions: 500 μM NAD+, 30 mM 3,5,5′-trimethylcyclohexanol, 100 mM K2HPO4 pH 7.2, 25°C; noncompetitive

Substance: di-18:1-PA
- % decrease of activity (2 μg lipid): 75%
